Experiment [1] has as its system rat tail-flick model. Put plainly: Anti-nociceptive pain testing, rat tail-flick model. To be noted: 7.5 mg/kg i.p., magnitude and duration similar to morphine 1.3 mg/kg s.c., FIG. 1. The format is in vivo, Male Sprague-Dawley (CD) rats.
Experiment [2] has as its system PDE-3. To be noted: cited from earlier work.
Experiment [3] relates to PDE-4. To be noted: cited from earlier work.
The target of experiment [4] is PDE-10 (Homo sapiens, UniProt Q9Y233). To be noted: cited from earlier work.
Chain of PDE-10 (Q9Y233 whole entry): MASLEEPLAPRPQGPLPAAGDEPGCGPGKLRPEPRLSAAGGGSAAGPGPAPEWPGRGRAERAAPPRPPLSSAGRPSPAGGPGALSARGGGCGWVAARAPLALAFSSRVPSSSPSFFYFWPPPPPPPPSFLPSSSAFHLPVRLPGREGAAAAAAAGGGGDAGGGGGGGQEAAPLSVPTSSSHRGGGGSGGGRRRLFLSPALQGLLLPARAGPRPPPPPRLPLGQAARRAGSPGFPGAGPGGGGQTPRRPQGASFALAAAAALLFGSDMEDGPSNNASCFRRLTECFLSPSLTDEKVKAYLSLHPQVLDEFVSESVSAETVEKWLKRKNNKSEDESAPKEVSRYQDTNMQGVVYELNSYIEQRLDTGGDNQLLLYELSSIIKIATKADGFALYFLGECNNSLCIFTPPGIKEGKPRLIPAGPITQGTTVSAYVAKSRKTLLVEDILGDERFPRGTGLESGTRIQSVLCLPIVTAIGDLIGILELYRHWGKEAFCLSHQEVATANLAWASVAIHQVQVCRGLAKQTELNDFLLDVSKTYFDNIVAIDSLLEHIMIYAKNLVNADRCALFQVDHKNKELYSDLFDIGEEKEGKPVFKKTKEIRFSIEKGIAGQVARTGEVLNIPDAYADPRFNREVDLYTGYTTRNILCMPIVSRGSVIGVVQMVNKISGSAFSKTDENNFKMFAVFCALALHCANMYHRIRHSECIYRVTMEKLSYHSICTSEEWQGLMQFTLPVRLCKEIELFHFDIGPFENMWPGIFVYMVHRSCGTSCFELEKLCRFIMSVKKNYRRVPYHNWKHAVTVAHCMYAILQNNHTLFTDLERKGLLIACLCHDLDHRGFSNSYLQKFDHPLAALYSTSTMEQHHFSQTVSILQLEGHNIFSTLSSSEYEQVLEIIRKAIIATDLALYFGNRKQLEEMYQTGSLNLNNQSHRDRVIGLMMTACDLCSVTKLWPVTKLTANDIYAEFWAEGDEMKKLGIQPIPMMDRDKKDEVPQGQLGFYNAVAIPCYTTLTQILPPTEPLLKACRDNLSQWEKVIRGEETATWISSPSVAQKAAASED
The target in experiment [5] is PDE-11 (Homo sapiens, UniProt Q9HCR9). To be noted: cited from earlier work.
Chain of PDE-11 (Q9HCR9 whole entry): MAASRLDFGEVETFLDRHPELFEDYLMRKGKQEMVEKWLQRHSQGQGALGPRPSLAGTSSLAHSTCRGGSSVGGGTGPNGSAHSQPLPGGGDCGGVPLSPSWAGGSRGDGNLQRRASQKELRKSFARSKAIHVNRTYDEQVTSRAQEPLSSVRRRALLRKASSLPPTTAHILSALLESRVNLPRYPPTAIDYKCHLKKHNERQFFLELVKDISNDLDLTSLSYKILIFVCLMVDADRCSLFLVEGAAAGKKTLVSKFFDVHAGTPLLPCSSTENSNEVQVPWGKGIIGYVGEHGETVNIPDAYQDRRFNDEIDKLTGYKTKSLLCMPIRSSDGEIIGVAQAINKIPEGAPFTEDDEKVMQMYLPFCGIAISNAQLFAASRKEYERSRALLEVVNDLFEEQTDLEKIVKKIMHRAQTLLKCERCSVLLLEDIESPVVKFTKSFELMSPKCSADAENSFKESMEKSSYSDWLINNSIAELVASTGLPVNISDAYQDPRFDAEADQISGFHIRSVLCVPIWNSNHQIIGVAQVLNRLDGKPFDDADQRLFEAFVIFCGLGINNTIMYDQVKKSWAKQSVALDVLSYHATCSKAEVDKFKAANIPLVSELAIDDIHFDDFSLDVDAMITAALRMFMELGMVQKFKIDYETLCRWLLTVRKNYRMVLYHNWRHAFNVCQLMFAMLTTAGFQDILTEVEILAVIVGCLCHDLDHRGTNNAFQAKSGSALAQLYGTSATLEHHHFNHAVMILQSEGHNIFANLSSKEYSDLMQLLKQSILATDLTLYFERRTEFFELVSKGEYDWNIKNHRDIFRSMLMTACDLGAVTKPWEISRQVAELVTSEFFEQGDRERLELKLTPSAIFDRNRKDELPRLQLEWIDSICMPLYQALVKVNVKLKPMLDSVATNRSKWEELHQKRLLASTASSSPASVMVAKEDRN

These results are taken from US20080114027A1, “Method for treating delirium” (priority 2006, published 2008).

On to `CC(C)C(=O)c1c(C(C)C)nn2ccccc12` [ibudilast, 2-methyl-1-(2-(1-methylethyl)pyrazolo(1,5-a)pyridin-3-yl)1-propanone], for which the “acute analgesic efficacy (tail-flick latency time)” value in experiment [1] is listed as “increased the latency time”. Also, the PDE inhibitory activity result in experiment [2], in experiment [3], in experiment [4] and in experiment [5] was “most active” throughout.
